The record followed here is PubChem BioAssay (NCI).

Several values for one entry are separate records, joined by “and”; a condition that tells them apart may be missing. Equal entries are not always repeated.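 A five-concentration, 48-hour dose response in 96-well plates underlies each endpoint, interpolated linearly between surrounding concentrations. GI50 marks 50% less growth. At the TGI there is no net growth.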 Bounds are passed on as bounds.

What all share (assay): NCI-60 cell line screen, 48 h
Assay [1] relates to DMS 273 small cell lung.
The subject of assay [2] is DLD-1 colon.
For assay [3], the system named is DMS 114 small cell lung.
Assay [4] concerns KM20L2 colon.
Assay [5] deals with HOP-18 NSCLC.
The subject of assay [6] is SNB-78 CNS.
Assay [7] deals with DU-145 prostate.
Assay [8] relates to PC-3 prostate.
Assay [9] has as its system MCF7 breast.
For assay [10], the system named is HS 578T breast.
The test system of assay [11] is BT-549 breast.
For assay [12], the system named is MDA-MB-435.

Take `C/C(CC(=O)CCC(=O)Nc1cccc(C(F)(F)F)c1)=N\NC(=O)NN`: the TGI in assay [1], in assay [2], in assay [3], in assay [4], in assay [5] and in assay [6] was greater than 100 µM throughout.

As for `O=S1(=O)c2ccccc2NC(c2ccc3ccccc3c2)CC1c1ccccc1F` (configuration not stated), the TGI is greater than 100 µM in assay [1], greater than 100 µM in [2], greater than 100 µM in assay [4] and 56.1 µM in assay [5].

For the compound `Clc1cc2nsnc2c(Cl)n1`, the TGI is greater than 100 µM in assay [1]; 42.1 µM in assay [2]; 33.5 µM in assay [3]; greater than 100 µM in [4]; 31.7 µM in [5]; greater than 100 µM in [6].

In the case of `COC(=O)[C@@H]1[C@H](O)[C@H](C)[C@H](O)[C@@](C)(O)/C=C\C=C(C)C(=O)Nc2c(C)c(OC(C)=O)c3c(c2O)C(=O)C(C)=C2OCOC(=C23)C(C)=C[C@@](C)(O)[C@H](O)[C@@H](C)[C@H]1OC(C)=O`, the TGI in [1] is greater than 100 µM; in assay [2] it was > 100 µM and 66.9 µM; in [7], greater than 66.9 µM; in assay [8], greater than 66.9 µM; in assay [3] it was > 100 µM and 21.9 µM; in [4], 66.9 µM and > 100 µM. Moreover, the TGI is > 100 µM and 66.9 µM in assay [5]; greater than 100 µM in [6]. In addition, the figures for the GI50 in assay [2] and in assay [5] were 40.7 µM and 41.3 µM, respectively.

`O=C1C(=O)N(c2ccc(Cl)cc2Cl)C(=O)C(=O)C1c1nc2ccccc2s1`: the TGI in [1] was greater than 100 µM; in [2], greater than 92.2 µM; in assay [3] it was greater than 100 µM; in assay [4], greater than 100 µM; in [5] it was greater than 100 µM.

On to `Cc1ccc(N=Nc2ccc(N(CCC#N)CCC#N)cc2C)c(Br)c1`, for which the TGI in assay [1] was 41.4 µM; in assay [2], greater than 100 µM; in assay [3], greater than 100 µM; in assay [5], greater than 100 µM; in assay [6] it was greater than 100 µM.

As to `COC(=O)CC1CCN(C#N)CC1CC[N+](=O)[O-]` (configuration not stated), the TGI in assay [1], in assay [2], in assay [3], in [4], in assay [5] and in [6] was greater than 100 µM in each case.

`COC(CN1C(=O)c2cccc3cccc(c23)C1=O)OC`: the TGI in assay [1], in assay [2], in [3], in [4], in [5] and in [6] was greater than 100 µM throughout.

As for `O=C(CC1(O)C(=O)Nc2c(Cl)cc(Cl)cc21)c1ccc(Br)cc1Br` (configuration not stated), the TGI came to 22.9 µM in [1]; 24.1 µM in [2]; 29.6 µM in assay [9]; 32.3 µM in [7]; 26.5 µM in [10]; 31.4 µM in assay [8]. Also, the TGI in assay [3] was 20.3 µM; in assay [11] it was 22.3 µM; in assay [4], 33.9 µM; in [5], 27.9 µM; in assay [6], greater than 74.9 µM; in [12], 25.5 µM.

Turning to `O=C(O)c1ccccc1[Se][Se]c1ccccc1C(=O)O`, the TGI in [1] was greater than 100 µM; in assay [2] it was greater than 100 µM; in assay [3], greater than 100 µM; in [4] it was 68.5 µM; in assay [5], greater than 100 µM.

Regarding `O=C(/C=C/c1ccccc1)NC1C=Nc2ccc(Cl)cc2NC1=O` (configuration not stated), the TGI in assay [1] was 54.6 µM; in assay [2], greater than 100 µM; in assay [3], 30.4 µM; in assay [4], 62.9 µM; in [5] it was greater than 100 µM; in [6] it was greater than 100 µM.

As to `CCCCCCCCCCCOc1ccc(C(=O)C(=O)c2ccc(OCCCCCCCCCCC)c(OCCCCCCCCCCC)c2)cc1OCCCCCCCCCCC`, the TGI in assay [1], in [2], in [3], in assay [4] and in assay [6] was greater than 100 µM throughout.

For `COC1CCC2C(NS(=O)(=O)c3ccc(C)cc3)CCCC2O1` (configuration not stated) (tested in a mixture with another compound), the TGI was 22.8 µM in assay [1]; greater than 34.5 µM in assay [2]; 27.9 µM in assay [3]; greater than 34.5 µM in assay [4]; greater than 34.5 µM in assay [6].

Take `CCOC(=O)CN1C(=O)c2cccc3cc([N+](=O)[O-])cc(c23)C1=O`: the TGI in assay [2] came out at 5.43 µM; in assay [3], 4.94 µM; in [4], 26.5 µM; in [5], 33.8 µM; in assay [6], 19.3 µM.

With `O=C(COc1ccc(Br)cc1Br)N1N=C(c2ccc([N+](=O)[O-])o2)CC1(O)c1ccccc1` (configuration not stated), the TGI is 32.5 µM in assay [1]; 30.2 µM in [2]; 23.5 µM in [3]; 58.8 µM in [4]; 41 µM in assay [5]; greater than 100 µM in assay [6].

Take `CCCCCCCCCCCCCCCCCC(CCCCCCCCCCCCCCCCC)OP(=O)(O)O`: the TGI in [1], in [3], in [4], in assay [5] and in assay [6] was greater than 100 µM in each case.
